Here are results for 37 compounds from patent publication US20060264419A1 (priority 2003, published 2006).

One may read the IC50 as the point on the concentration scale where inhibition reaches its midpoint.

The assay concerns the target 5-HT2A receptors (Rattus norvegicus, UniProt P14842). The experiment in a line: in-vitro affinity to 5-HT2A receptors, displacement of [3H]ketanserine (Example A1). The assay is classed as binding. From the text:
The 5-HT2A receptors are exposed both to [^3H]ketanserine (a substance which is known for its affinity to the receptor) and also to the test compound. The decrease in the affinity of [^3H]ketanserine to the receptor is an indication of the affinity of the test substance to the 5-HT2A receptor.
A general note: Loss of bound radioactivity is the signal in a displacement assay; it reports binding, not function.

[1] abbreviates: target not given, description names affinity to 5-HT2A receptors, read-out: IC50.

Like-named read-outs stand apart in the source and are kept apart here.

Chain of 5-HT2A receptors (P14842 whole entry): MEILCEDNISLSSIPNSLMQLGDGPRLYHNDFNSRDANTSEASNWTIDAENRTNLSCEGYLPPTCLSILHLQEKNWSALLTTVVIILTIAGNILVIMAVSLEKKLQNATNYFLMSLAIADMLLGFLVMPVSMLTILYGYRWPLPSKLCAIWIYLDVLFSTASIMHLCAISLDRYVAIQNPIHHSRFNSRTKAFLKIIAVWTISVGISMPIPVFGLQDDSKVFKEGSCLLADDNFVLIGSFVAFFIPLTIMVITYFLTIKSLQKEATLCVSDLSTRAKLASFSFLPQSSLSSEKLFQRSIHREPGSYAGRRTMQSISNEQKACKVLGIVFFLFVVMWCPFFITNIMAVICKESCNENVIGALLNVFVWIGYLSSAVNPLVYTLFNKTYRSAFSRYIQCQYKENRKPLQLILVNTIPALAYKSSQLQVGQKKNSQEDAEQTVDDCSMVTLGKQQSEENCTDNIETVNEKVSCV

Turning to `NCCc1cnn(-c2ccc(-c3ccccc3)cc2)c1-c1ccccc1F` [(188), 2-[1-Biphenyl-4-yl-5-(2-fluorophenyl)-1H-pyrazol-4-yl]-ethylamine], the IC50 under setting [1] turned out to be 1.4 µM.

Turning to `CN(C)CCN(C)Cc1cnn(-c2ccc(-c3ccc(F)cc3)nc2)c1-c1ccccc1F` [(141), N-{5-(2-fluorophenyl)-1-[6-(4-fluorophenyl)pyridin-3-yl]-1H-pyrazol-4-ylmethyl}-N,N′,N′-trimethylethane-1,2-diamine], under setting [1], the half-maximal inhibitory concentration (IC50) worked out at 0.14 µM.

Regarding `O=C1NCN(c2ccccc2)C12CCN(Cc1cnn(-c3ccc(-c4ccccc4)cc3)c1-c1ccccc1F)CC2` [(94), 8-[1-Biphenyl-4-yl-5-(2-fluorophenyl)-1H-pyrazol-4-ylmethyl]-1-phenyl-1,3,8-triazaspiro[4.5]decan-4-one], the IC50 under setting [1] amounted to 0.4 µM.

For `CCC1(O)CCN(Cc2cnn(-c3ccc(-c4ccccc4)cc3)c2-c2ccccc2F)CC1` [(80), 1-[1-Biphenyl-4-yl-5-(2-fluorophenyl)-1H-pyrazol-4-ylmethyl]-4-ethylpiperidin-4-ol], the concentration for half-maximal inhibition (IC50) under setting [1] is 0.28 µM.

For the compound `Fc1ccccc1-c1c(CN2CCOCC2)cnn1-c1ccc(-c2ccccc2)cc1` [(28), 4-[1-Biphenyl-4-yl-5-(2-fluorophenyl)-1H-pyrazol-4-ylmethyl]-morpholine], the IC50 under setting [1] came to 1.1 µM.

Take `CN1CCCN(Cc2cnn(-c3ccc(-c4ccccc4)cc3)c2-c2ccccc2F)CC1` [(93), 1-[1-Biphenyl-4-yl-5-(2-fluorophenyl)-1H-pyrazol-4-ylmethyl]-4-methyl-[1,4]diazepam]: under setting [1], the 50% inhibitory concentration (IC50) amounted to 0.0064 µM.

For `CN1CCN(Cc2cnn(-c3ccc(Br)cc3)c2-c2ccccc2F)CC1` [Example 989, 1-[1-(4-Bromophenyl)-5-(2-fluoro-phenyl)-1H-pyrazol-4-ylmethyl]-4-methylpiperazine], under “read-out: HT2A IC50”, the concentration for half-maximal inhibition (IC50) was determined as 0.13 µM.

Turning to `O=C(c1cnn(-c2ccc(-c3ccccc3)cc2)c1-c1ccccc1F)N1CCOCC1` [(193), 1-[1-Biphenyl-4-yl-5-(2-fluorophenyl)-1H-pyrazol-4-yl]-1-morpholin-4-ylmethanone], the IC50 under setting [1] was determined as 0.36 µM.

In the case of `NC(=O)CN1CCN(Cc2cnn(-c3ccc(-c4ccccc4)cc3)c2-c2ccccc2F)CC1` [(111), 2-{4-[1-Biphenyl-4-yl-5-(2-fluorophenyl)-1H-pyrazol-4-ylmethyl]piperazin-1-yl}acetamide], under setting [1], the 50% inhibitory concentration (IC50) came out at 0.36 µM.

For `CN1CCN(Cc2cnn(-c3ccc(-c4ccc(F)cc4)cc3)c2-c2ccc(Cl)c(Cl)c2)CC1` [Example 1007, 1-[5-(3,4-Dichlorophenyl)-1-(4′-fluoro-biphenyl-4-yl)-1H-pyrazol-4-ylmethyl]-4-methyl-piperazine], the IC50 (read-out: HT2A IC50) worked out at 0.19 µM.

Take `CNC(=O)CNCc1cnn(-c2ccc(-c3ccccc3)cc2)c1-c1ccccc1F` [(130), 2-{[1-Biphenyl-4-yl-5-(2-fluorophenyl)-1H-pyrazol-4-ylmethyl]-amino}-N-methylacetamide]: the half-maximal inhibitory concentration (IC50) under setting [1] is 0.6 µM.

Regarding `CC(C)(C)OC(=O)N1CCN(Cc2cnn(-c3ccc(-c4ccccc4)cc3)c2-c2ccccc2F)CC1` [(54), tert-Butyl 4-[1-Biphenyl-4-yl-5-(2-fluorophenyl)-1H-pyrazol-4-ylmethyl]piperazine-1-carboxylate], the IC50 under setting [1] is 0.082 µM.

With `CC(C)(C)OC(=O)N1CCN(Cc2cnn(-c3ccc(-c4ccccc4)cc3)c2-c2ccccn2)CC1` [(59), tert-Butyl 4-(1-biphenyl-4-yl-5-pyridin-2-yl-1H-pyrazol-4-ylmethyl)piperazine-1-carboxylate], the IC50 under setting [1] was 0.78 µM.

For `Fc1ccccc1-c1c(CN2CC=CC2)cnn1-c1ccc(-c2ccccc2)cc1` [Example 939, 1-Biphenyl-4-yl-4-(2,5-dihydropyrrol-1-yl-methyl)-5-(2-fluorophenyl)-1H-pyrazole], the IC50 (read-out: HT2A IC50) was 0.036 µM.

As for `OCc1cnn(-c2ccc(-c3ccc(F)cc3)cc2)c1-c1cccc(Cl)c1` [Example 992, [5-(3-Chlorophenyl)-1-(4′-fluoro-biphenyl-4-yl)-1H-pyrazol-4-yl]methanol], the IC50 (read-out: HT2A IC50) was 0.14 µM.

For the compound `CCN(Cc1ccccc1)Cc1cnn(-c2ccc(-c3ccccc3)cc2)c1-c1ccccc1F` [(32), Benzyl-[1-biphenyl-4-yl-5-(2-fluorophenyl)-1H-pyrazol-4-ylmethyl]ethylamine], the half-inhibitory concentration (IC50) under setting [1] turned out to be 0.32 µM.

Regarding `Fc1ccccc1-c1c(CCCN2CCOCC2)cnn1-c1ccc(-c2ccccc2)cc1` [Example 917, 4-{3-[1-Biphenyl-4-yl-5-(2-fluoro-phenyl)-1H-pyrazol-4-yl]propyl}morpholine], the IC50 (read-out: HT2A IC50) was 0.023 µM.

Turning to `CC(C)(C)OC(=O)N1CCN(Cc2cnn(-c3ccc(C(F)(F)F)cc3)c2-c2ccccc2F)CC1` [(84), tert-Butyl 4-[5-(2-fluorophenyl)-1-(4-trifluoromethyl-phenyl)-1H-pyrazol-4-ylmethyl]piperazine-1-carboxylate], the IC50 under setting [1] was determined as 0.008 µM.

As for `CCC1(O)CCN(Cc2cnn(-c3ccc(-c4ccccc4)cc3)c2-c2ccccc2F)CC1` [Example 1033, 1-[1-Biphenyl-4-yl-5-(2-fluorophenyl)-1H-pyrazol-4-ylmethyl]-4-ethylpiperidin-4-ol], the IC50 (read-out: HT2A IC50) amounted to 0.28 µM.

For the compound `CCNC(=O)CN1CCN(Cc2cnn(-c3ccc(-c4ccccc4)cc3)c2-c2ccccc2F)CC1` [Example 1018, 2-{4-[1-Biphenyl-4-yl-5-(2-fluoro-phenyl)-1H-pyrazol-4-ylmethyl]piperazin-1-yl}-N-ethyl-acetamide], under “read-out: HT2A IC50”, the IC50 stood at 0.23 µM.

In the case of `CC(=O)Nc1cccc(-c2ccc(-n3ncc(CN4CCN(C)CC4)c3-c3ccccc3F)cc2)c1` [Example 988, N-{4′-[5-(2-Fluorophenyl)-4-(4-methyl-piperazin-1-ylmethyl)pyrazol-1-yl]biphenyl-3-yl}acetamide], under “read-out: HT2A IC50”, the 50% inhibitory concentration (IC50) amounted to 0.13 µM.

`CC(C)c1ccc(-n2ncc(CN3CCN(C)CC3)c2-c2ccccc2F)cc1` [(114), 1-[5-(2-Fluorophenyl)-1-(4-isopropylphenyl)-1H-pyrazol-4-ylmethyl]-4-methylpiperazine]: under setting [1], the half-inhibitory concentration (IC50) was found to be 0.12 µM.

Consider `OCC(Cc1cnc[nH]1)NCc1cnn(-c2ccc(-c3ccccc3)cc2)c1-c1ccccc1F` (stereo not shown) [(137), 2-{[1-Biphenyl-4-yl-5-(2-fluorophenyl)-1H-pyrazol-4-ylmethyl]-amino}-3-(3H-imidazol-4-yl)propan-1-ol], for which, under setting [1], the IC50 was 0.37 µM.

As for `Fc1ccccc1-c1c(CNC2C3CNCC32)cnn1-c1ccc(-c2ccccc2)cc1` (stereo not shown) [(192), (3-Azabicyclo[3.1.0]hex-6-yl)-[1-biphenyl-4-yl-5-(2-fluorophenyl)-1H-pyrazol-4-ylmethyl]amine], the IC50 under setting [1] turned out to be 0.32 µM.

As to `N#CC(NCc1cnn(-c2ccc(-c3ccccc3)cc2)c1-c1ccccc1F)C(N)=O` (stereo not shown) [Example 987, 2-{[1-Biphenyl-4-yl-5-(2-fluorophenyl)-1H-pyrazol-4-ylmethyl]amino}-2-cyanoacetamide], where the note is “read-out: HT2A IC50”, the IC50 was determined as 0.13 µM.

Take `NC(=O)CNCc1cnn(-c2ccc(-c3ccccc3)cc2)c1-c1ccccc1F` [(118), 2-{[1-Biphenyl-4-yl-5-(2-fluorophenyl)-1H-pyrazol-4-ylmethyl]-amino}acetamide]: under setting [1], the half-inhibitory concentration (IC50) came to 0.73 µM.

Turning to `CN1CCN(Cc2cnn(-c3ccc(-c4ccsc4)cc3)c2-c2ccccc2F)CC1` [(66), 1-[5-(2-Fluorophenyl)-1-(4-thiophen-3-ylphenyl)-1H-pyrazol-4-ylmethyl]-4-methylpiperazine], the concentration for half-maximal inhibition (IC50) under setting [1] worked out at 0.014 µM.

As to `CCOC(=O)CNC(=O)CNCc1cnn(-c2ccc(-c3ccccc3)cc2)c1-c1ccccc1F` [(153), Ethyl (2-{[1-Biphenyl-4-yl-5-(2-fluorophenyl)-1H-pyrazol-4-ylmethyl]amino}ethanoylamino)acetate], the half-maximal inhibitory concentration (IC50) under setting [1] was found to be 1.1 µM.

Turning to `CN1CCN(Cc2cnn(-c3ccc(-c4ccsc4)cc3)c2-c2ccco2)CC1` [(70), 1-[5-Furan-2-yl-1-(4-thiophen-3-ylphenyl)-1H-pyrazol-4-ylmethyl]-4-methylpiperazine], the IC50 under setting [1] turned out to be 0.0045 µM.

Regarding `NCCNCc1cnn(-c2ccc(-c3ccccc3)cc2)c1-c1ccccc1F` [(76), N^1-[1-Biphenyl-4-yl-5-(2-fluorophenyl)-1H-pyrazol-4-ylmethyl]-ethane-1,2-diamine], under setting [1], the half-maximal inhibitory concentration (IC50) is 0.0065 µM.

On to `CCNC(=O)CN1CCN(Cc2cnn(-c3ccc(-c4ccccc4)cc3)c2-c2ccccc2F)CC1` [(139), 2-{4-[1-Biphenyl-4-yl-5-(2-fluorophenyl)-1H-pyrazol-4-ylmethyl]piperazin-1-yl}-N-ethylacetamide], for which the IC50 under setting [1] was 0.23 µM.

Take `COc1ccc(-c2c(CN3CCN(CCN4CCCC4)CC3)cnn2-c2ccc(-c3ccc(F)cc3)cc2)cc1` [Example 954, 1-[1-(4′-Fluorobiphenyl-4-yl)-5-(4-methoxy-phenyl)-1H-pyrazol-4-ylmethyl]-4-(2-pyrroli-din-1-ylethyl)piperazine]: the 50% inhibitory concentration (IC50) (read-out: HT2A IC50) was determined as 0.056 µM.

For the compound `Fc1ccccc1-c1c(CN2CCOCC2)cnn1-c1ccc(-c2cccs2)cc1` [(62), 4-[5-(2-Fluorophenyl)-1-(4-thiophen-2-ylphenyl)-1H-pyrazol-4-ylmethyl]morpholine], the IC50 under setting [1] amounted to 0.62 µM.

For the compound `Nc1ccncc1NCc1cnn(-c2ccc(-c3ccccc3)cc2)c1-c1ccccc1F` [Example 1006, N3-[1-Biphenyl-4-yl-5-(2-fluoro-phenyl)-1H-pyrazol-4-ylmethyl]pyridine-3,4-diamine], the half-maximal inhibitory concentration (IC50) (read-out: HT2A IC50) turned out to be 0.18 µM.

As to `NCc1cnn(-c2ccc(-c3ccccc3)cc2)c1-c1ccccc1` [(165), C-(1-Biphenyl-4-yl-5-phenyl-1H-pyrazol-4-yl)methylamine], under setting [1], the IC50 was 0.021 µM.

Take `CN(C)C(=O)CNCc1cnn(-c2ccc(-c3ccccc3)cc2)c1-c1ccccc1F` [Example 1010, 2-{[1-Biphenyl-4-yl-5-(2-fluorophenyl)-1H-pyrazol-4-ylmethyl]amino}-N,N-dimethyl-acetamide]: for the setting “read-out: HT2A IC50”, the concentration for half-maximal inhibition (IC50) was determined as 0.2 µM.

In the case of `CCOC(=O)CNCc1cnn(-c2ccc(-c3ccccc3)cc2)c1-c1cccnc1` [(117), Ethyl [(1-biphenyl-4-yl-5-pyridin-3-yl-1H-pyrazol-4-ylmethyl)-amino]acetate], the IC50 under setting [1] was 0.94 µM.
